In US5434154A, “Antimigraine 4-pyrimidinyl and pyridinyl derivatives of indol-3yl-alkylpiperazines” (Bristol-Myers Squibb Company, priority 1994, dated 1995):
Structures can show the parent of a compound that is named as a salt.

Legend:
[1] = target: T1, 5-HT1D (Bos taurus, UniProt F1MGM3); experiment: 5-HT1D binding (displacement of tritiated serotonin); conditions: in vitro, Table 2
T1 construct: methodology such as that described by Heuring and Peroutka, J. Neurosci., 7(3), 1987, 894-903; with only minor modifications; from tissue
T1 sequence (F1MGM3 1-403): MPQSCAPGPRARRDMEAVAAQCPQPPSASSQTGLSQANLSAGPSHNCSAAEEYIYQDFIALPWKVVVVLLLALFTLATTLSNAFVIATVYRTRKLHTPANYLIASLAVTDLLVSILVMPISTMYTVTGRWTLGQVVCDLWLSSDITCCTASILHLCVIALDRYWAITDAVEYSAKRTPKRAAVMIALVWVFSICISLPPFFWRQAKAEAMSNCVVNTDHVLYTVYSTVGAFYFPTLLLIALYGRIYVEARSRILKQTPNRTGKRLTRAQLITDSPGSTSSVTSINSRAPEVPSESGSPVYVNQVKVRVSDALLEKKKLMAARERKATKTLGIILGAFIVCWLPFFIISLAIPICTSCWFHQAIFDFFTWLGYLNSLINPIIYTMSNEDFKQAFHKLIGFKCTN
Description: Determination of 5-HT1D binding properties was accomplished employing methodology such as that described by Heuring and Peroutka, J. Neurosci., 7(3), 1987, 894-903; with only minor modifications. In vitro IC50 (nM) test values were determined for the compounds of this invention employing tritiated serotonin.

[2] = test system: migraine; conditions: cited from earlier work
[3] = test system: migraine sufferers; conditions: cited from earlier work

Compound	IC50 [1]	also measured
CNS(=O)(=O)Cc1ccc2[nH]cc(CCCN3CCN(c4ccncc4OC)CC3)c2c1 [Example 61, 4-(5-Methoxy-4-pyridinyl)-1-[3-[5-[[(methylamino)sulfonyl]methyl]-1H-indol-3-yl]propyl]piperazine hydrochloride]	1 nM	
COc1cnccc1N1CCN(CCCc2c[nH]c3ccccc23)CC1 [Example 62, 1-[3-(1H-indol-3-yl)propyl]-4-(3-methoxy-4-pyridinyl)piperazine dihydrochloride]	10 nM	
COc1cncnc1N1CCN(CCCc2c[nH]c3ccc(F)cc23)CC1 [Example 64]	1.5 nM	
COc1cncnc1N1CCN(CCCc2c[nH]c3ccc(NS(C)(=O)=O)cc23)CC1C (centres unmarked) [Example 68]	9.6 nM	
COc1cncnc1N1CCN(CCCc2c[nH]c3ccc(N(C)S(C)(=O)=O)cc23)CC1C (centres unmarked) [Example 70]	11 nM	
COc1cncnc1N1CCN(CCCc2c[nH]c3ccc(CS(N)(=O)=O)cc23)CC1 [Example 81]	7.9 nM	
COc1cncnc1N1CCN(CCCc2c[nH]c3ccc(CC(=O)NCc4ccccc4)cc23)CC1 [Example 84]	4.6 nM	
CN1C[C@H](C(=O)N[C@]2(C)O[C@@]3(O)[C@@H]4CCCN4C(=O)[C@H](Cc4ccccc4)N3C2=O)C=C2c3cccc4[nH]cc(c34)C[C@H]21 [ergotamine]		dependence ([2]; extended use): cause dependence with extended use
CC[C@@H](CO)NC(=O)[C@@H]1C=C2c3cccc4c3c(cn4C)C[C@H]2N(C)C1 [methysergide]		side-effects ([2]; long term usage): severe use-limiting side-effects with long term usage
COC(=O)[C@H]1[C@H]2C[C@@H]3c4[nH]c5cc(OC)ccc5c4CCN3C[C@H]2C[C@@H](OC(=O)c2cc(OC)c(OC)c(OC)c2)[C@@H]1OC [reserpine]		induction of headache in migraine sufferers ([3]; in vivo): induces a typical migraine-type headache in migraine sufferers; plasma serotonin ([3]; intramuscular injection): lowers plasma serotonin
NCCc1c[nH]c2ccc(O)cc12 [serotonin creatinine sulfate]		alleviation of reserpine-induced headache ([3]; slow I.V. injection): This induced headache can be alleviated
NCCc1c[nH]c2ccc(O)cc12 [serotonin]		effect in treating migraine attacks ([3]; in vivo): effective in treating migraine attacks; side-effects in migraine use ([3]; in vivo): restlessness, nausea, faintness, hyperpnea, facial flushing and parasthesias
